Data from patent publication US20060058312A1, “Stabilized aqueous preparation for injection” (priority 2004, published 2006).
Read-outs that look alike come from different tables or passages of the source.

Legend:
[1] = Stability test at 60° C., effect of pH value without ascorbic acid (Example 3), HPLC content; type: physicochemical; settings: no addition of ascorbic acid; for remaining calcium levofolinate content compared with the initial value (100): 60° C.
Procedure: (§1) For the aqueous preparations obtained in (1) to (3) above, tests evaluating stability at 60° C./3 weeks were performed. The calcium levofolinate content remaining in the aqueous solution was measured using high performance liquid chromatography under the following conditions (the same were employed in the following experiments) 2 ml each of the test preparations were weighed, and 10 ml of the internal standard solution described below (the same was employed in the following experiments) were added thereto. Subsequently, water was added to adjust the total volume of the solution to 50 ml, thereby to prepare a test solution. Meanwhile, 62.5 mg of calcium levofolinate were dissolved in water so as to prepare a 25 ml solution. Then, to 10 ml of the resultant solution were added 10 ml of the internal standard solution, and the total volume of the solution was adjusted to 50 ml by adding water, thereby to prepare a standard solution. For 20 μl of the standard solution and the test solution, the content of calcium levofolinate was measured by the liquid chromatography method under the following conditions.
(§2) 1) Measurement Conditions • Detector: Ultraviolet absorptiometer (Measurement wavelength: 254 nm) • Column: A stainless tube having an internal diameter of 4.0 mm and a length of 15 cm was filled with 5 μm of octadecylsilylated silica gel for liquid chromatography. • Column temperature: A constant temperature near 45° C. • Mobile phase: The pH value of a mixed test solution containing 0.008 mol/L of disodium hydrogen phosphate solution/methanol/40% aqueous tetrabutylammonium hydroxide solution (385:110:1.3 (volume ratio)) was adjusted to 7.5 by adding phosphoric acid. • Flow rate: The flow rate was regulated so that the retention time of calcium levofolinate became about 10 minutes. • Internal standard solution: A solution prepared by adding water to 0.04 g of methyl parahydroxybenzoate so that the whole amount of solution is 100 ml.
About 80 ml of water for injection were added to a beaker (volume: 200 ml). Then, 0.56 g of sodium chloride and 0.3 g of tromethamine were added to it with bubbling of nitrogen gas, and the components were dissolved with stirring and heating to 45 to 50° C. Subsequently, 1.375 g of calcium levofolinate (1.1 g, in terms of 5-formyl-(6S)-tetrahydrofolic acid) were added, and the components were dissolved with stirring. Thereafter, the pH value of the solution was adjusted to 6.0 by adding 5% hydrochloric acid solution dropwise. A similar procedure to the above was performed to produce solutions, each having a regulated pH value of 7.0, 7.5, 7.9, 8.1, 8.3, 8.7, 9.0, 9.2, and 9.5 (1% aqueous sodium hydroxide solution was used in place of 5% hydrochloric acid solution).
Water for injection was further added to each solution to adjust the total volume of the solution to 100 ml. Subsequently, the bubbling of nitrogen gas was stopped, and each solution was filtered with a filtration filter, thereby to yield a solution for injection. Subsequently, each of nine 5 ml-glass ampules the inside space of which had been substituted by nitrogen gas was filled with 5 ml of the resultant solution for injection, and was sealed by heating.
For each aqueous preparation obtained as above, a test evaluating stability at 60° C. was performed by measuring the remaining levofolinate content by the high performance liquid chromatography method. […] In the cases of pH 6 to 7 and pH 8.7 to pH 9, an extremely excellent stabilizing effect was confirmed.

[2] = Change of pH value of the aqueous solution during storage; type: physicochemical; settings: aqueous solution adjusted to pH 6 to 7
[3] = type: physicochemical; settings: buffer, 13 mg/mL, pH 6.2
Procedure: as §1, §2
About 1100 ml of water for injection were added to a beaker. Then, 8.04 g of sodium chloride, 3.6 g of tromethamine, and 1.2 g of ascorbic acid were added thereto with bubbling of nitrogen gas, and the components were dissolved with stirring. To the resultant solution were added 15.62 g of calcium levofolinate, which was dissolved with stirring. Thereafter, the pH value of the solution was adjusted to 6.2 by adding 5% hydrochloric acid solution dropwise. Water for injection was further added to the solution to adjust the total volume to 1200 ml. Subsequently, the bubbling of nitrogen gas was stopped, and the solution was filtered with a filtration filter, thereby to yield a solution for injection. A 5 ml-syringe made of polypropylene, the inside space of which had been substituted by nitrogen gas, was filled with 5 ml of the resultant solution for injection, followed by steam sterilization under high pressure at 105° C. for 30 minutes. The thus-sterilized syringe was packaged together with a deoxidant, AGELESS ZP-50 (trade name, Mitsubishi Gas Chemical Company, Inc. Japan) by using a plastic film with high air impermeability.
For an aqueous preparation as obtained above, a stability test (60° C./75% RH, and 40° C./75% RH) was performed by measuring the content of calcium levofolinate remaining after storage for a certain period by the high performance liquid chromatography method.

- remaining calcium levofolinate content compared with the initial value (100) ([1]; pH value 6.0, 1 month): 88.7
- remaining calcium levofolinate content compared with the initial value (100) ([1]; pH value 6.0, 1 week): 94.7
- remaining calcium levofolinate content compared with the initial value (100) ([1]; pH value 6.0, 2 weeks): 92.5
- remaining calcium levofolinate content compared with the initial value (100) ([1]; pH value 6.0, 3 weeks): 90.1
- calcium levofolinate content, Initial value (100) ([1]; pH value 6.0): 100
- remaining calcium levofolinate content compared with the initial value (100) ([1]; pH value 7.0, 1 month): 88.6
- remaining calcium levofolinate content compared with the initial value (100) ([1]; pH value 7.0, 1 week): 94.8
- remaining calcium levofolinate content compared with the initial value (100) ([1]; pH value 7.0, 2 weeks): 92.2
- remaining calcium levofolinate content compared with the initial value (100) ([1]; pH value 7.0, 3 weeks): 90.1
- calcium levofolinate content, Initial value (100) ([1]; pH value 7.0): 100
- remaining calcium levofolinate content compared with the initial value (100) ([1]; pH value 7.5, 1 month): 84.2
- remaining calcium levofolinate content compared with the initial value (100) ([1]; pH value 7.5, 1 week): 93.4
- remaining calcium levofolinate content compared with the initial value (100) ([1]; pH value 7.5, 2 weeks): 89.0
- remaining calcium levofolinate content compared with the initial value (100) ([1]; pH value 7.5, 3 weeks): 86.8
- calcium levofolinate content, Initial value (100) ([1]; pH value 7.5): 100
- remaining calcium levofolinate content compared with the initial value (100) ([1]; pH value 7.9, 1 month): 81.9
- remaining calcium levofolinate content compared with the initial value (100) ([1]; pH value 7.9, 1 week): 95.1
- remaining calcium levofolinate content compared with the initial value (100) ([1]; pH value 7.9, 2 weeks): 89.7
- remaining calcium levofolinate content compared with the initial value (100) ([1]; pH value 7.9, 3 weeks): 86.3
- calcium levofolinate content, Initial value (100) ([1]; pH value 7.9): 100
- remaining calcium levofolinate content compared with the initial value (100) ([1]; pH value 8.1, 1 week): 95.4
- remaining calcium levofolinate content compared with the initial value (100) ([1]; pH value 8.1, 2 weeks): 91.5
- remaining calcium levofolinate content compared with the initial value (100) ([1]; pH value 8.1, 3 weeks): 85.6
- calcium levofolinate content, Initial value (100) ([1]; pH value 8.1): 100
- remaining calcium levofolinate content compared with the initial value (100) ([1]; pH value 8.3, 1 week): 93.6
- remaining calcium levofolinate content compared with the initial value (100) ([1]; pH value 8.3, 2 weeks): 91.1
- remaining calcium levofolinate content compared with the initial value (100) ([1]; pH value 8.3, 3 weeks): 85.5
- calcium levofolinate content, Initial value (100) ([1]; pH value 8.3): 100
- remaining calcium levofolinate content compared with the initial value (100) ([1]; pH value 8.7, 1 week): 94.7
- remaining calcium levofolinate content compared with the initial value (100) ([1]; pH value 8.7, 2 weeks): 93.6
- remaining calcium levofolinate content compared with the initial value (100) ([1]; pH value 8.7, 3 weeks): 88.3
- calcium levofolinate content, Initial value (100) ([1]; pH value 8.7): 100
- remaining calcium levofolinate content compared with the initial value (100) ([1]; pH value 9.0, 1 week): 96.1
- remaining calcium levofolinate content compared with the initial value (100) ([1]; pH value 9.0, 2 weeks): 93.3
- remaining calcium levofolinate content compared with the initial value (100) ([1]; pH value 9.0, 3 weeks): 88.6
- calcium levofolinate content, Initial value (100) ([1]; pH value 9.0): 100
- remaining calcium levofolinate content compared with the initial value (100) ([1]; pH value 9.2, 1 week): 94.4
- remaining calcium levofolinate content compared with the initial value (100) ([1]; pH value 9.2, 2 weeks): 93.4
- remaining calcium levofolinate content compared with the initial value (100) ([1]; pH value 9.2, 3 weeks): 87.7
- calcium levofolinate content, Initial value (100) ([1]; pH value 9.2): 100
- remaining calcium levofolinate content compared with the initial value (100) ([1]; pH value 9.5, 1 week): 93.7
- remaining calcium levofolinate content compared with the initial value (100) ([1]; pH value 9.5, 2 weeks): 92.4
- remaining calcium levofolinate content compared with the initial value (100) ([1]; pH value 9.5, 3 weeks): 85.3
- calcium levofolinate content, Initial value (100) ([1]; pH value 9.5): 100
- change of pH value of the aqueous solution during storage [2]: gradually changes to an acid region
- remaining ratio (%) of calcium levofolinate ([3]; 0 months): 100%
- remaining ratio (%) of calcium levofolinate ([3]; 0 weeks): 100%
- remaining ratio (%) of calcium levofolinate ([3]; 1 month): 99.8%
- remaining ratio (%) of calcium levofolinate ([3]; 2 months): 98.8%
- remaining ratio (%) of calcium levofolinate ([3]; 4 months): 96.6%
- remaining ratio (%) of calcium levofolinate ([3]; 6 months): 91.8%
- remaining ratio (%) of calcium levofolinate ([3]; 168 h): 96.6%
- remaining ratio (%) of calcium levofolinate ([3]; 336 h): 96.2%
- remaining ratio (%) of calcium levofolinate ([3]; 504 h): 95.3%
- remaining ratio (%) of calcium levofolinate ([3]; 672 h): 94.4%
SMILES: Nc1nc(=O)c2c([nH]1)NC[C@H](CNc1ccc(C(=O)N[C@@H](CCC(=O)O)C(=O)O)cc1)N2C=O [calcium levofolinate, (6S)-N-[4-[[(2-amino-5-formyl-1,4,5,6,7,8-hexahydro-4-oxo-6-pteridinyl)methyl]amino]benzoyl]-L-glutamic acid]
